Measured values: ChEMBL document CHEMBL5728559, “Alkylphenyl compounds” (2021)

Key:
[1] = biological target: Sphingosine 1-phosphate receptor 1 (Homo sapiens, UniProt P21453); assay: S1P1 Binding Assay: Membranes were prepared from CHO cells expressing human S1P1. Cells pellets (1×10^9 cells/pellet) were suspended in buffer containing 20 mM HEPES (4-(2-hydroxyethyl)-1-piperazineethanesulfonic acid), pH 7.5, 50 mM NaCl, 2 mM EDTA (Ethylenediamine tetraacetic acid) and Protease Inhibitor cocktail (Roche), and disrupted on ice using the Polytron homogenizer. The homogenate was centrifuged at 20,000 rpm (48,000 g) and the supernatant was discarded. The membrane pellets were resuspended in buffer containing 50 mM HEPES, pH 7.5, 100 mM NaCl, 1 mM MgCl2, 2 mM EDTA and stored in aliquots at −80° C. after protein concentration determination.Membranes (2 μg/well) and 0.03 nM final concentration of 33P-S1P ligand (1 mCi/ml, Perkin Elmer or American Radiolabeled Chemicals) diluted in assay buffer (50 mM HEPES, pH7.4, 5 mM MgCl2, 1 mM CaCl2, 0.5% fatty acid free BSA(bovine serum albumin), 1 mM NaF) were added to the compound plates (384 Falcon v-bottom plate (0.5 μl/well in a 11 point, 3-fold dilution). Binding was performed for 45 minutes at room temperature, terminated by collecting the membranes onto 384-well Millipore FB filter plates, and radioactivity was measured by TOPCOUNT®. The competition data of the test compounds over a range of concentrations was plotted as percentage inhibition of radioligand specific binding. […]
[2] = biological target: Sphingosine 1-phosphate receptor 3 (Homo sapiens, UniProt Q99500); assay: Receptor [35S] GTPgammaS Binding Assays: Compounds were loaded in a 384 Falcon v-bottom plate (0.5 μL/well in a 11 point, 3-fold dilution). Membranes prepared from S1P1/CHO cells or EDG3-Gal5-bla HEK293T cells (EDG3 equivalent S1P3) were added to the compound plate (40 μL/well, final protein 3 μg/well) with MULTIDROP®. [35S]GTP (1250 Ci/mmol, Perkin Elmer) was diluted in assay buffer: 20 mM HEPES, pH7.5, 10 mM MgCl2, 150 mM NaCl, 1 mM EGTA(ethylene glycol tetraacetic acid), 1 mM DTT (dithiothreitol), 10 μM GDP, 0.1% fatty acid free BSA, and 10 μg/ml Saponin to 0.4 nM. 40 μL of the [35S] GTP solution was added to the compound plate with a final concentration of 0.2 nM. The reaction was kept at room temperature for 45 min. At the end of incubation, all the mixtures in the compound plate were transferred to Millipore 384-well FB filter plates via the VELOCITY11® Vprep liquid handler. The filter plate was washed with water 4 times by using the manifold Embla plate washer and dried at 60° C. for 45 min. MicroScint 20 scintillation fluid (30 μL) was added to each well for counting on the Packard TOPCOUNT®. EC50 is defined as the agonist concentration that corresponds to 50% of the Ymax (maximal response) obtained for each individual compound tested.A smaller value for GTPγS S1P1 EC50 value indicated greater activity for the compound in the GTPγS S1P1 binding assay. […]
Chain of Sphingosine 1-phosphate receptor 3 (Q99500 whole entry): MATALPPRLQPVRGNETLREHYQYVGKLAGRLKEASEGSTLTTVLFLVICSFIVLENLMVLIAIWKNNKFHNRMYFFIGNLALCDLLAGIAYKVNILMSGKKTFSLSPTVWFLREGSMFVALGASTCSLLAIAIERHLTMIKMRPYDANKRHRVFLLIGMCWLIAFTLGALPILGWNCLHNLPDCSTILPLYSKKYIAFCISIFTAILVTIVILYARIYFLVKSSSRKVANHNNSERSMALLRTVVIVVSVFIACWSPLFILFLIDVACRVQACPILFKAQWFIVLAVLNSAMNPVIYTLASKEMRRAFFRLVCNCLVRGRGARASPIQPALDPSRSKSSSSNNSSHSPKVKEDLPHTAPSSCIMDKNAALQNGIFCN

Chain of Sphingosine 1-phosphate receptor 1 (P21453 whole entry): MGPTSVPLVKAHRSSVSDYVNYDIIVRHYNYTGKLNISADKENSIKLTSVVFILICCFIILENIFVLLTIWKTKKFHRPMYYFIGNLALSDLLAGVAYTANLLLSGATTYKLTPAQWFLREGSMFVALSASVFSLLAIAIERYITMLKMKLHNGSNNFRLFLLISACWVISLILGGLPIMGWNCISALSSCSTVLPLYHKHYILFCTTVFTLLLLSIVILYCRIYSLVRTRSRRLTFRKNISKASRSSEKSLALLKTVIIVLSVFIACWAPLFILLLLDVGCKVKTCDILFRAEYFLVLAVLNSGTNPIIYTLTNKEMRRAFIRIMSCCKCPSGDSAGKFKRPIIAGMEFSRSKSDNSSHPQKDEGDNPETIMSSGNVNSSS

SMILES: CCCCCCCCc1cc(C)c(N2CCC(N)(COP(=O)(O)O)C2=O)c(C)c1 (configuration not stated)
- EC50 [1]: 14.4 µM
- EC50 [2]: > 60 µM
